# Source: patent US8008279B2, “Compound—827” (AstraZeneca AB, priority 2007, dated 2011)
# Target: T1, rhuman cathepsin K (Homo sapiens, UniProt P43235)
# T1 sequence (P43235 115-329): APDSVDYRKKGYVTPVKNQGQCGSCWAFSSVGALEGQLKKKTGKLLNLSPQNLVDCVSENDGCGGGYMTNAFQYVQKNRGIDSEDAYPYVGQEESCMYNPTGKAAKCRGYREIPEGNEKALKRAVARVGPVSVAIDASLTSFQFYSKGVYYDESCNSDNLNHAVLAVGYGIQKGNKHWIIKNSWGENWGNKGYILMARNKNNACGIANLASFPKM
# Assay: Assay for identification of Cathepsin K inhibitors (QFRET, cleavage of Z-Phe-Arg-AMC)
# Assay type: biochemical
# Details: 0.5 nM rhuman cathepsin K, Z-Phe-Arg-AMC substrate, 30 min pre-incubation, 1 h incubation at room temperature; mean of two separate occasions
# Experimental: 0.5 nM [final] rhuman cathepsin K in phosphate buffer was added to a 384-well black microtitre plate containing investigative compounds. The enzyme and compound were pre-incubated at room temperature for 30 minutes before the addition of […] [final] Z-Phe-Arg-AMC synthetic substrate in phosphate buffer. The plates were covered and incubated for 1 h at room temperature, protected from light. Following the incubation the reaction was stopped with 7.5% [final]acetic acid. Relative fluorescence was measured using the Ultra plate reader at a wavelength of 360 nm excitation and 425 nm emission.
# Data was corrected for background fluorescence (minimum controls without enzyme).
row,CatK FRET Mean pIC50,Molecule
1,8.553,"(1R,2R)-N-(1-cyanocyclopropyl)-2-[(6-methyl-1,3,4,5-tetrahydro-2H-pyrido[4,3-b]indol-2-yl)carbonyl]cyclohexanecarboxamide [Example 6]"

# Same assay, conditions: 0.5 nM rhuman cathepsin K, Z-Phe-Arg-AMC substrate, 30 min pre-incubation, 1 h incubation at room temperature; mean of two separate occasions; read-out: CatK FRET Mean pIC50 (converted)
row,IC50,Molecule
1,1 nM,"N#CC1(NC(=O)[C@@H]2CCCC[C@H]2C(=O)N2CCc3[nH]c4c(OCc5ccccc5)cccc4c3C2)CC1 [Example 32, (1R,2R)-2-{[6-(benzyloxy)-1,3,4,5-tetrahydro-2H-pyrido[4,3-b]indol-2-yl]carbonyl}-N-(1-cyanocyclopropyl)cyclohexanecarboxamide]"
2,0.558 nM,"N#CCOc1cccc2c3c([nH]c12)CCN(C(=O)[C@@H]1CCCC[C@H]1C(=O)NC1(C#N)CC1)C3 [Example 35, (1R,2R)-N-(1-cyanocyclopropyl)-2-{[6-(cyanomethoxy)-1,3,4,5-tetrahydro-2H-pyrido[4,3-b]indol-2-yl]carbonyl}cyclohexanecarboxamide]"
3,1.64 nM,"N#CC1(NC(=O)[C@@H]2CCCC[C@H]2C(=O)N2CCc3[nH]c4c(OCCN5CCCC5)cccc4c3C2)CC1 [Example 38, (1R,2R)-N-(1-cyanocyclopropyl)-2-(6-(2-(pyrrolidin-1-yl)ethoxy)-2,3,4,5-tetrahydro-1H-pyrido[4,3-b]indole-2-carbonyl)cyclohexanecarboxamide]"
4,3.89 nM,"COCCn1c2c(c3ccccc31)CN(C(=O)[C@@H]1CCCC[C@H]1C(=O)NC1(C#N)CC1)CC2 [Example 29, (1R,2R)-N-(1-cyanocyclopropyl)-2-[(5-methoxyethyl-1,3,4,5-tetrahydro-2H-pyrido[4,3-b]indol-2-yl)carbonyl]cyclohexanecarboxamide]"
5,49.9 nM,"N#CC1(NC(=O)[C@@H]2CCCC[C@H]2C(=O)N2CCc3[nH]c4cccc(F)c4c3C2)CC1 [Example 9, (1R,2R)-N-(1-cyanocyclopropyl)-2-[(9-fluoro-1,3,4,5-tetrahydro-2H-pyrido[4,3-b]indol-2-yl)carbonyl]cyclohexanecarboxamide]"
6,2.24 nM,"N#CC1(NC(=O)[C@@H]2CCCC[C@H]2C(=O)N2CCc3oc4ccccc4c3C2)CC1 [Example 23, (1R,2R)-N-(1-cyanocyclopropyl)-2-[(benzofuro[3,2-c]-1,2,3,4-tetrahydropyridyl)carbonyl]cyclohexanecarboxamide]"
7,0.849 nM,"N#CC1(NC(=O)[C@@H]2CCCC[C@H]2C(=O)N2CCc3[nH]c4ccc(F)cc4c3C2)CC1 [Example 1, (1R,2R)-N-(1-cyanocyclopropyl)-2-[(8-fluoro-1,3,4,5-tetrahydro-2H-pyrido[4,3-b]indol-2-yl)carbonyl]cyclohexanecarboxamide]"
8,78.5 nM,"CS(=O)(=O)c1ccc2[nH]c3c(c2c1)CN(C(=O)[C@@H]1CCCC[C@H]1C(=O)NC1(C#N)CC1)CC3 [Example 16, (1R,2R)-N-(1-cyanocyclopropyl)-2-{[8-(methylsulfonyl)-1,3,4,5-tetrahydro-2H-pyrido[4,3-b]indol-2-yl]carbonyl}cyclohexanecarboxamide]"
9,2.24 nM,"N#CC1(NC(=O)[C@@H]2CCCC[C@H]2C(=O)N2CCc3[nH]c4c(Br)cccc4c3C2)CC1 [Example 13, (1R,2R)-2-[(6-bromo-1,3,4,5-tetrahydro-2H-pyrido[4,3-b]indol-2-yl)carbonyl]-N-(1-cyanocyclopropyl)cyclohexanecarboxamide]"
10,1.78 nM,"N#CC1(NC(=O)[C@@H]2CCCC[C@H]2C(=O)N2CCc3[nH]c4c(Cl)cccc4c3C2)CC1 [Example 19, (1R,2R)-2-[(6-chloro-1,3,4,5-tetrahydro-2H-pyrido[4,3-b]indol-2-yl)carbonyl]-N-(1-cyanocyclopropyl)cyclohexanecarboxamide]"
11,1.46 nM,"Cn1c2c(c3cccnc31)CN(C(=O)[C@@H]1CCCC[C@H]1C(=O)NC1(C#N)CC1)CC2 [Example 21, (1R,2R)-N-(1-cyanocyclopropyl)-2-[(9-methyl-5,7,8,9-tetrahydro-6H-pyrrolo[2,3-b:4,5-c′]dipyridin-6-yl)carbonyl]cyclohexanecarboxamide]"
12,0.324 nM,"CN(C)CCOc1cccc2c3c([nH]c12)CCN(C(=O)[C@@H]1CCCC[C@H]1C(=O)NC1(C#N)CC1)C3 [Example 36, (1R,2R)-N-(1-cyanocyclopropyl)-2-(6-(2-(dimethylamino)ethoxy)-2,3,4,5-tetrahydro-1H-pyrido[4,3-b]indole-2-carbonyl)cyclohexanecarboxamide]"
13,0.486 nM,"CCCOc1cccc2c3c([nH]c12)CCN(C(=O)[C@@H]1CCCC[C@H]1C(=O)NC1(C#N)CC1)C3 [Example 34, (1R,2R)-N-(1-cyanocyclopropyl)-2-[(6-propoxy-1,3,4,5-tetrahydro-2H-pyrido[4,3-b]indol-2-yl)carbonyl]cyclohexanecarboxamide]"
